The results in this text go back to BindingDB's records for doi:10.1021/jm980560x (University of Minnesota, 1999).

As a reminder, the Ki is the dissociation constant of the complex between target and ligand, obtained from inhibition or displacement.

Each structure is given as a SMILES string.

Target in the first assay: not listed separately
In words: Displacement of [3H]vesamicol from Vesicular Acetylcholine Transporter (VAChT). A general note: Loss of bound radioactivity is the signal in a displacement assay; it reports binding, not function.
In turn, `O[C@@H]1CCNC[C@H]1N1CCC(c2ccccc2)CC1` came in with a Ki of 2900 nM.

For `O[C@@H]1C[C@@H]2[C@H](CCCN2Cc2cccc(I)c2)C[C@H]1N1CCC(c2ccccc2)CC1` [(4aR,6R,7R,8aR)-1-(3-Iodo-benzyl)-6-(4-phenyl-piperidin-1-yl)-decahydro-quinolin-7-ol], affinity was put at a Ki of 5.2 nM.

`O[C@@H]1C[C@@H]2[C@H](CCCN2Cc2ccc(F)cc2)C[C@H]1N1CCC(c2ccccc2)CC1` [(4aR,6R,7R,8aR)-1-(4-Fluoro-benzyl)-6-(4-phenyl-piperidin-1-yl)-decahydro-quinolin-7-ol] had a Ki of 10 nM.

Molecule `O[C@@H]1C[C@H]2CCCN(C/C=C/I)[C@@H]2C[C@H]1N1CCC(c2ccccc2)CC1` [(4aR,6R,7R,8aR)-1-((E)-3-Iodo-allyl)-7-(4-phenyl-piperidin-1-yl)-decahydro-quinolin-6-ol] showed a Ki of 0.4 nM.

In turn, `O=C(c1ccccc1)N1CCC[C@@H]2C[C@@H](O)[C@H](N3CCC(c4ccccc4)CC3)C[C@H]21` [[(4aR,6R,7R,8aR)-6-Hydroxy-7-(4-phenyl-piperidin-1-yl)-octahydro-quinolin-1-yl]-phenyl-methanone] registered a Ki of 0.3 nM.

In turn, `O[C@@H]1C[C@H]2CCCN(Cc3cccc(I)c3)[C@@H]2C[C@H]1N1CCC(c2ccccc2)CC1` [trans-trans-1-(3-iodobenzyl)-7-(4-phenylpiperidin-1-yl)-decahydroquinolin-6-ol] registered a Ki of 0.26 nM.

In turn, `O[C@@H]1C[C@H]2CCCN(Cc3ccc(F)cc3)[C@@H]2C[C@H]1N1CCC(c2ccccc2)CC1` [trans-trans-1-(4-fluorobenzyl)-7-(4-phenylpiperidin-1-yl)-decahydroquinolin-6-ol] registered an inhibitory constant (Ki) of 0.99 nM.

For another assay, the target named is Sigma-2 receptor (Rattus norvegicus). In words: Binding affinity against Sigma-2 receptor in rat liver membranes using [3H]DTG (DuPont-NEN) as radioligand in the presence of (+)-pentazocine (100 nM).
Regarding `O[C@@H]1C[C@H]2CCCN(C/C=C/I)[C@@H]2C[C@H]1N1CCC(c2ccccc2)CC1` [(4aR,6R,7R,8aR)-1-((E)-3-Iodo-allyl)-7-(4-phenyl-piperidin-1-yl)-decahydro-quinolin-6-ol], the inhibition constant (Ki) came out at 363 nM.

Take `O[C@@H]1CCN(Cc2cccc(I)c2)C[C@H]1N1CCC(c2ccccc2)CC1` [(-)-1''-(3-Iodo-benzyl)-4-phenyl-[1,3'']bipiperidinyl-4''-ol]: the Ki came to 190 nM.
